For series [1], the system named is type I interferon expression in THP-1 cells. The note with it: reference compound 2′3′-RR-(AXA) in patent CN108430503A; read-out: EC50 value of the control drug; cited from earlier work.
A further series has as its system CT-26-Luc cells. As to the kind of experiment: Anticancer activity assay in CT-26 mouse tumor model. Type of series: in vivo, mice. The note with it: 1 mg/kg intratumoral injection, once every two days, three times, FIG. 4 and FIG. 5. As for the experimental part:
Anticancer Activity Assay of the Compound 8
Mice: BABL/C female mice, weight 18 g to 22 g. The source is the animal experiment center in Guangdong province, and the mice are fed with pellet feed and freely eat and drink water.
Tumor Cell Lines: CT-26-Luc Cells […]
The administration method includes the following steps: the administration was started at the 10th day after tumor inoculation growth, and 50 microliters/mouse was administered once every two days for a total of three times by intratumoral injection. The growth of tumors in mice was detected by chemiluminescence using the IVIS Spectrum Imaging System. […] After imaging, fluorescence values were converted to photon numbers and the total number of fluorescence photons for each experimental group was counted. […] In which the numbers in FIG. 4a, FIG. 4b, FIG. 4c, FIG. 4d, FIG. 4e and FIG. 4f represent the total number of fluorescence photons in the circular region (ROI, region of interest), and FIG. 4g and FIG. 4h are statistical graphs of the total number of fluorescence photons for each experimental group, respectively. […]

Series [2] in a line: Determination of the oil-water partition coefficient log P (n-octanol/water, HPLC). The note with it: pH 7; n-octanol / purified water (10 mM K2HPO4 pH7.0), HPLC peak area ratio, three repeats. Format: physicochemical. The method, then:
Determination of the Oil-Water Partition Coefficient Log P of the Two Cyclic Dinucleotide Prodrug Molecules.
1) Preparing the compound solution: a certain amount of the compound 8, the compound 16 and the compound cddA35 were weighed and dissolved in DMSO solutions respectively to prepare mother solutions with a concentration of 1 mg/mL. 2) 20 μL of the prepared mother liquor was added to an EP tube containing a mixture of 1 mL of n-octanol and 1 mL of purified water (10 mM K2HPO4 pH7.0), vortexed for 2 h with shaking, and allowed to stand overnight at 4° C. for phase separation, and 400 μL of solution from each phase was separated. Centrifuging at 3000 rpm for 5 min, filtering with corresponding […] filter membrane, measuring the two-phase absorption peak area under the same HPLC parameter condition, repeating the experiment for three times, and calculating log value of the peak area ratio of n-octyl alcohol phase and water phase to obtain the log P value of the target compound, as shown in Table 2.
HPLC conditions: the instrument used by an Agilent 1260 HPLC, column: Agilent ZORABX SB-C185 μm [4.6×150 mm], column temperature 25° C., sample injection 10 μL, detection wavelength was […], chromatographic gradient method as shown in Table 1 below.

Series [3] relates to type I interferon expression in THP-1 cells. As to the kind of experiment: Type I interferon activity assay in monocytic cell line THP-1 (THP-1-Lucia) cells. Type of series: cell-based. The note with it: for EC50: Homo sapiens, THP-1, dose-response curves, serial dilutions, FIG. 3, read-out: EC50 causing type I interferon expression in THP-1 cell line. The method, then: Activity Assay of Two Cyclic Dinucleotide Prodrug Molecules in Monocytic Cell Line THP-1 Cells
The THP-1-Lucia cells confluency reached about 80%, and the compound 8, the compound 16 and the drug ADU-S100 are directly dissolved into a culture medium according to a certain concentration and added into a 24-well plate, wherein four wells are parallel. The cells were maintained under the culture condition of 37° C. and 5% CO2 for 24 h. After the end of the culture, luciferase activity was measured. Wherein, the test results of the type I interferon of the compound 8, the compound 16 and the drug ADU-S100 in the monocyte cell line THP-1 under the action concentration of 10 μM are shown in FIG. 2; EC50 values for the compound 8 and the compound 16 to cause type I interferon expression in THP-1 cell lines were then determined by dose-response curves for serial dilutions at various concentrations, as shown in FIG. 3.

A further series relates to STING. As to the kind of experiment: Dual-fluorescence reporter gene activity assay in HEK293T cells (hSTING-wt, IFNβ promoter luciferase). Type of series: cell-based, human. The following applies: 5 μM, without any transfection reagent, 24 h, FIG. 1. As for the experimental part: Activity assay of two cyclic dinucleotide prodrug molecules in HEK293T cells
The principle is as follows: dual-fluorescence reporter gene experiments: After entering a cell, the cyclic dinucleotide prodrug molecule passes through thioesterase in the cytoplasm of the cell or a reducing environment, so that thioester bond breakage or disulfide bond breakage is carried out, then an intermediate is obtained, a sulfur atom at a p position can nucleophilically attack a carbon atom at the a position, cyclic thioethane is removed, cyclic dinucleotides with a phosphodiester structure of a parent drug with negative charges are released, the intracellular STING protein is combined and activated, interferon regulatory factor 3 (IRF3) is phosphorylated, phosphorylated IRF3 enters into the nucleus and combined with the promoter region of a interferon-β gene to cause the expression of interferon, and based on these, the interferon gene promoter is introduced into a promoter of firefly luciferase, so that the cell activity of the prodrug molecule can be measured by using a dual-fluorescence reporter gene method.
(1) preparing the compound solution: the compound 8 and the compound 16 were dissolved in DMSO, respectively, to obtain a final concentration of 1 mM. cddA35 was dissolved in water and similarly prepared at a concentration of 1 mM. […]

Like-named read-outs stand apart in the source and are kept apart here.

Turning to `Nc1ncnc2c1ncn2[C@@H]1O[C@@H]2COP(=O)([S-])O[C@@H]3[C@H](O)[C@@H](COP([O-])(=S)O[C@H]2[C@H]1O)O[C@H]3n1cnc2c(N)ncnc21.[Na+].[Na+]` (stereo partly shown) [ADU-S100], the half-maximal effective concentration (EC50) in series [1] is 41500 nM. For the same compound, the “growth of the tumor in the mice” value in the series on CT-26-Luc cells is “only controlled”.

For the compound `CC(C)(C)C(=O)SCCOP1(=O)OC[C@H]2O[C@@H](n3cnc4c(N)ncnc43)C[C@H]2OP(=O)(OCCSC(=O)C(C)(C)C)OC[C@H]2O[C@@H](n3cnc4c(N)ncnc43)CC2O1` (stereo partly shown) [Compound 8], the logP in series [2] stood at 1.93. In series [3], the concentration for a half-maximal effect (EC50) came to 4.4 nM.

With `Nc1ncnc2c1ncn2[C@H]1CC2OP(=O)(OCCSSc3ccccn3)OC[C@H]3O[C@@H](n4cnc5c(N)ncnc54)CC3OP(=O)(OCCSSc3ccccn3)OC[C@H]2O1` (stereo partly shown) [Compound 16], in the series on STING, the “dual-fluorescence result: crossing cell membranes and activating STING pathway / expression of interferon” value is given as “can autonomously cross cell membranes without any transfection reagent”. The logP in series [2] worked out at 0.85. Further, the EC50 in series [3] came to 355 nM. In series [3] (action concentration of 10 μM, without any transfection reagent, 24 h, FIG. 2, activity much higher than ADU-S100), the “expression of type I interferon in THP-1 cell line” value was “strong expression of type I interferon”.

With `Nc1ncnc2c1ncn2[C@H]1CC2OP(=O)(O)OC[C@H]3O[C@@H](n4cnc5c(N)ncnc54)CC3OP(=O)(O)OC[C@H]2O1` (stereo partly shown) [cddA35, reference compound], the “dual-fluorescence result: crossing cell membranes and activating STING pathway / expression of interferon” value with STING is “hardly crosses cell membranes”. Besides, in series [2], the log partition coefficient (logP) is -3.43.

The term EC50 denotes the concentration giving half of the maximal effect. One may read the logP as a log measure of how a compound divides between an organic and an aqueous phase.
